Results as given in publication PMC5441580, “GPR40 partial agonist MK-2305 lower fasting glucose in the Goto Kakizaki rat via suppression of endogenous glucose production” (PLoS ONE, 2017).
Values joined by “and” are separate entries in the source; they are usually repeats but may differ in a detail not shown here. Equal entries are not always repeated.

How the values were obtained:
rat GPR120 (FFAR4) = target: T1, rat GPR120 (FFAR4) (Rattus norvegicus, UniProt Q2AC31); test: IP1 functional assay, HEK293 cells stably expressing rat GPR120; assay type: cell-based; details: individual experiments (raw data of Table 1)
T1 construct: expressed in transfected cells
T1 sequence (Q2AC31 1-361): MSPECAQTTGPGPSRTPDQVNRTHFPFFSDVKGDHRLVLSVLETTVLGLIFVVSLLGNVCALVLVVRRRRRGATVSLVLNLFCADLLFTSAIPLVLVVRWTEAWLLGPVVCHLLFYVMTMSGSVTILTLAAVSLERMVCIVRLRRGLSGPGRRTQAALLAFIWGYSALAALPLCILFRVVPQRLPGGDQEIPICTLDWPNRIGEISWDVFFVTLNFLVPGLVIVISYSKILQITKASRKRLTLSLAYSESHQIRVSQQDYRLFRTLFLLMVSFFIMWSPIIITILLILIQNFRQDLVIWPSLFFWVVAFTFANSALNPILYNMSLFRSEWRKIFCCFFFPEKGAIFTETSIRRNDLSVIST
Method: CHO Jump-IN cells stably expressing rat GPR40 or HEK293 Jump-IN cells stably expressing rat GPR120 were cultured in DMEM media supplemented with 10% dialyzed FBS, non-essential amino acids, penicillin/streptomycin, 10 μg/ml Blasticidin S HCL and 200 or 100 μg/ml Hygromycin B, respectively (Life Technologies). Cell stocks were maintained and grown in a sub-confluent state using standard cell culture procedures. The day before the experiment, the cells were harvested with non-enzymatic cell dissociation buffer and re-suspended in DMEM supplemented as described above at 0.15 million cells per ml. […] The seeded plates were incubated overnight at 37°C in a humidified environment.
On the day of the experiment, the growth media was removed from the assay plate by centrifugation using a BlueCatBio BlueWasher, protocol #21 “Light Dry” and 10 μl of IP1 stimulation buffer (prepared according to the Cisbio IP-one Tb HTRF kit) is added to each well. Test compounds were dissolved and serially diluted in DMSO as 200X the final assay concentration and 50 nl of the compound dilution was acoustically added to each well of the assay plates. The plates were then incubated for 60 minutes at room temperature and 10 μl of detection buffer (prepared according to the IP-one Tb HTRF kit) is added to each well of the assay plate. […] Maximal % activation and EC50 are then determined for each test compound.

GK rats = test: OGTT with insulin co-measurement on Day 13 of chronic treatment, parallel set of animals; assay type: in vivo, rat; parameters: unit not given here; details: Time 10, individual animals
WKY rats = test: endogenous glucose production in vivo, 2H/13C dual tracer, acute treatment, WKY rats; parameters: species or system rat
Method: [The procedure below names another organism; the source lists this organism under the same test.] To evaluate whether MK-2305 treatment produced an effect on EGP in vivo, a ^2H/^13C dual tracer approach was used to calculate EGP and its contributing sources. On the day of the study, GK rats were bled via tail snip, and blood glucose was measured via glucometer. Ambient glucose was measured at 8 A.M. and used to sort animals into treatment groups (n = 8 per group). 0.9% NaCl salinated D2O (Sigma-Aldrich, St. Louis, MO) was administered to all animals via IP injection at dose volume of 20 ml/kg. Animals were then placed in clean cages and food was removed. After a 5 hour fast, blood glucose was measured and animals were dosed PO with MK-2305 at 10 mg/kg (5 ml/kg) or vehicle (0.5% methylcellulose) immediately followed by 50 mg/kg [U-^13C] glucose (Sigma-Aldrich) IP at 5 ml/kg. Blood was collected via tail snip at time points from 60–150 min post treatment to measure blood glucose as well as endogenous (^12C-glucose) and exogenous (^13C-glucose) via GCMS. Following the last tail blood collection, rats were anesthetized with isoflurane and cardiac blood was collected into K2EDTA tubes (Becton, Dickinson and Co., Franklin Lakes, NJ).
The serially collected blood samples were analyzed for ^13C-glucose enrichment using GC-MS analysis. The % ^13C glucose enrichments were then combined with the total glucose readings to calculate the concentration of ^13C-glucose, and these values were modeled with a two-compartment model of whole body glucose metabolism to calculate the average EGP for the period from 0–150 minutes.
Terminal blood samples were analyzed for relative ^2H enrichment in plasma glucose using the monoacetone glucose method. Briefly, samples were extracted with 70% perchloric acid and centrifuged at 25,000 rcf for 10 min at 4°C. The supernatant was collected and the pH was adjusted to 6–8 using KOH. The samples were then lyophilized overnight. To convert plasma glucose to monoacetone glucose (MAG), acetone and concentrated sulfuric acid were added to the lyophilized samples and stirred for 4 hours at room temperature. Water was then added and the pH adjusted to 2.0 with 3M Na2CO3. Samples were stirred moderately for 18 hours at room temperature, the pH was adjusted to 7 with 3M Na2CO3, and the samples were completely dried by speed vacuum concentration. The resulting MAG samples were then extracted in hot ethyl acetate, dried overnight under a stream of N2 gas, purified using Discovery DSC-18 SPE columns (6 ml, 1 g bed weight), and freeze dried. Purified MAG samples were solubilized in 180 μl 90% acetonitrile for ^2H NMR analysis which was performed using the lock channel of a 950 MHz Bruker NMR spectrometer (David H Murdock Research Institute, Kannapolis, NC). Acquisition parameters were as follows: 90° pulse, D1 = 1 s, ^1H broadband decoupling, NS = 3600 averages, acquisition time ~ 1 hr. The ^2H NMR spectra of the MAG samples were then analyzed using in–house developed Matlab (The Mathworks Inc, Natick, MA) to model the NMR peaks with a Lorentzian line shape, and the results were used to calculate integrals for each of the seven NMR resonances in the MAG spectrum. Peaks 2, 5, and 6s were then used to calculate the relative sources of EGP (i.e. gluconeogenesis from TCA cycle substrates, gluconeogenesis from triose phosphates, and glycogenolysis) and these values were combined with the total EGP measurement to calculate absolute fluxes of glucose production.

[1] = acute treatment, 10 mg/kg, individual animals

Q: For O=C1NC(=O)C(C2CCOc3cc(Oc4ccc(C(F)(F)F)cc4Cl)ccc32)S1 (stereo not drawn) [MK-2305], which “% Activation” value (rat GPR120 (FFAR4)) is on record?
A: -22% and -18% and -16% and 8%

Q: And the EC50 (rat GPR120 (FFAR4))?
A: > 10 µM

Q: What about the “Change in plasma insulin from baseline during OGTT (delta insulin)” value (GK rats; Acute, 30 mpk, 30 mg/kg) of the same compound?
A: 1.28 and 1.368 and 1.816 and 3.661 and 3.304 and 1.312 and 2.648 and 2.392 and 0.317 and 1.559

Q: What about the “Change in plasma insulin from baseline during OGTT (delta insulin)” value (GK rats; Chronic, 30 mkd) of the same compound?
A: 1.342 and 0.561 and 1.202 and 1.9 and 1.117 and 1.167 and 2.431 and 1.17 and 1.428 and 0.831

Q: What about the “effects on EGP” value (WKY rats; acute) of the same compound?
A: not statistically significant

Q: What about the “Glucose Production, GNG Glycerol” value (WKY rats; [1]) of the same compound?
A: 2.7 umol/kg/min (2×) and 2.4 umol/kg/min and 1.6 umol/kg/min

Q: What about the “Glucose Production, GNG TCA” value (WKY rats; [1]) of the same compound?
A: 8 µmol/kg/min and 8.7 µmol/kg/min and 7.8 µmol/kg/min and 6.4 µmol/kg/min

Q: And the “Glucose Production, GNG Total” value (WKY rats; [1])?
A: 10.7 µmol/kg/min and 11.2 µmol/kg/min and 10.5 µmol/kg/min and 8.1 µmol/kg/min

Q: What about the “Glucose Production, Glycogenolysis” value (WKY rats; [1]) of the same compound?
A: 6.9 µmol/kg/min and 4.7 µmol/kg/min and 6.8 µmol/kg/min and 3.4 µmol/kg/min
